Assay results taken from patent US20200148635A1 (priority 2017, published 2020).

What was measured:
[1] = test system: Alternaria solani; assay: In vitro test Alternaria solani (early blight of tomato/potato), radial growth on Potato Dextrose Agar; format: cell-based; conditions: 168 h, agar plate, 25° C., seven days, read-out: control compared to the untreated check
Protocol: (§1) Alternaria solani (early blight of tomato/potato): Compounds were dissolved in 0.3% DMSO and then added to Potato Dextrose Agar medium just prior to dispensing it into Petri dishes. 5 mL medium with compound in the desired concentration was dispensed into 60 mm sterile Petri-plates. After solidification each plate was seeded with 5 mm size mycelial disc taken form periphery of actively growing virulent culture plate. Plates were incubated in growth chambers at 25° C. temperature and 60% relative humidity for seven days and radial growth was measured.

[2] = test system: Rhizoctonia solani; assay: In vitro test Rhizoctonia solani (rice sheath blight/potato black scurf), radial growth on Potato Dextrose Agar; format: cell-based; conditions: 168 h, agar plate, 25° C., seven days, read-out: control compared to the untreated check
Protocol: Rhizoctonia solani (Rice Sheath Blight/Potato Black Scurf):
as §1, with “Compounds” for “Alternaria solani (early blight of tomato/potato): Compounds”

[3] = test system: Septoria lycopersici; assay: In vitro test Septoria lycopersici (leaf spot of tomato), radial growth on Potato Dextrose Agar; format: cell-based; conditions: 168 h, agar plate, 25° C., seven days, read-out: control compared to the untreated check
Protocol: Septoria lycopersici (Leaf Spot of Tomato):
as §1, with “Compounds” for “Alternaria solani (early blight of tomato/potato): Compounds”, “70%” for “60%”

[4] = test system: Pyricularia oryzae; assay: microbe, parasite or virus in culture; format: cell-based; conditions: 168 h, read-out: control compared to the untreated check
[5] = test system: Phakopsora pachyrhizi; assay: Greenhouse Phakopsora pachyrhizi test in soybean, preventive; format: in vivo; conditions: preventive spray on soybean plants, inoculated one day after treatment with Phakopsora pachyrhizi, read-out: control compared to the untreated check
Protocol: Phakopsora pachyrhizi Test in Soybean
Compounds were dissolved in 2% DMSO/Acetone and then mixed with water to the calibrated spray volume of 50 mL and poured into the spray bottles for further applications.
To test the preventive activity of compounds, healthy young soybean plants raised in the greenhouse were sprayed with active compound preparation at the stated application rates inside the spray cabinets using hallowcone nozzles. One day after treatment, the plants were inoculated with spore suspension containing 2.1×10^6 Phakopsora pachyrhizi inoculum. The inoculated plants were then kept in greenhouse chamber at 25° C. temperature and 90% relative humidity for disease expression.
A visual assessment of compound's performance was carried out by rating the disease severity (0-100% scale) on treated plants on 3, 7, 10 and 15 days after application. Efficacy (% control) of the compounds was calculated by comparing the disease rating in the treatment with the one of the untreated control. The sprayed plants were also assessed for compound's plant compatibility by recording symptoms like necrosis, chlorosis and stunting.

Structure (SMILES) | inhibition of growth at 300 ppm [4] | further results
CCN(C)C=Nc1cc(C)c(S(C)(=O)=Nc2ccccc2)cc1Cl (stereo not drawn) [Compound 17] |  | inhibition of growth at 300 ppm [1]: > 70%; inhibition of growth at 300 ppm [2]: > 70%; inhibition of growth at 300 ppm [3]: > 70%
CCN(C)C=Nc1cc(C)c(Oc2cccc(S(C)(=O)=NCC3CC3)c2)cc1Cl (stereo not drawn) [Compound 18] | > 70% | 
CCN=S(=O)(CC1CC1)c1cccc(Oc2cc(Cl)c(N=CN(C)CC)cc2C)c1 (stereo not drawn) [Compound 20] |  | inhibition of growth at 300 ppm [3]: > 70%
CCN(C)C=Nc1cc(C)c(S(C)(=O)=Nc2cccc(OC)c2)cc1Cl (stereo not drawn) [Compound 24] | > 70% | 
CCN(C)C=Nc1cc(C)c(S(C)(=O)=NC(=O)c2ccccc2)cc1Cl (stereo not drawn) [Compound 28] | > 70% | 
CCN(C)C=Nc1cc(C)c(S(C)(=O)=NC(=O)c2ccc(F)c(Cl)c2)cc1Cl (stereo not drawn) [Compound 29] | > 70% | 
CCN(C)C=Nc1cc(C)c(S(C)(=O)=NC(=O)c2cccc(C(F)(F)F)c2)cc1Cl (stereo not drawn) [Compound 30] | > 70% | 
CCN(C)C=Nc1cc(C)c(S(C)(=O)=NC(=O)c2cc(C(F)(F)F)cc(C(F)(F)F)c2)cc1Cl (stereo not drawn) [Compound 31] | > 70% | pest or weed control at 500 ppm [5]: > 70%
CCN(C)C=Nc1cc(C)c(S(C)(=O)=NC(=O)c2ccc(F)c(F)c2)cc1Cl (stereo not drawn) [Compound 34] | > 70% | pest or weed control at 500 ppm [5]: > 70%
CCN(C)C=Nc1cc(C)c(S(C)(=O)=Nc2cccc(C(F)(F)F)c2)cc1Cl (stereo not drawn) [Compound 36] | > 70% | 
CCN(C)C=Nc1cc(C)c(S(C)(=O)=NC(=O)c2cccc(Cl)c2)cc1Cl (stereo not drawn) [Compound 40] | > 70% | 
CCN(C)C=Nc1cc(C)c(S(C)(=O)=Nc2ccc(Cl)c(C(F)(F)F)c2)cc1Cl (stereo not drawn) [Compound 41] | > 70% | 
CCN(C)C=Nc1cc(C)c(S(C)(=O)=Nc2cccc(S(F)(F)(F)(F)F)c2)cc1Cl (stereo not drawn) [Compound 45] |  | inhibition of growth at 300 ppm [1]: > 70%; inhibition of growth at 300 ppm [3]: > 70%
CCN(C)C=Nc1cc(Br)c(N=S(C)(=O)c2ccccc2)nc1C (stereo not drawn) [Compound 47] | > 70% | pest or weed control at 500 ppm [5]: > 70%
CCN(C)C=Nc1cc(C)c(S(=O)(CC)=NC(=O)c2cccc(C(F)(F)F)c2)cc1Cl (stereo not drawn) [Compound 51] | > 70% | inhibition of growth at 300 ppm [1]: > 70%
CCN(C)C=Nc1cc(C)c(S(=O)(CC)=NC(=O)c2cccc(F)c2)cc1Cl (stereo not drawn) [Compound 52] |  | inhibition of growth at 300 ppm [1]: > 70%
CCN(C)C=Nc1cc(C)c(S(=O)(CC)=NC(=O)c2cccc(OC(F)(F)F)c2)cc1Cl (stereo not drawn) [Compound 53] | > 70% | inhibition of growth at 300 ppm [1]: > 70%
CCN=S(C)(=O)c1cccc(Oc2cc(C)c(N=CN(C)CC)cc2C)c1 (stereo not drawn) [Compound 54] | > 70% | 
CCN(C)C=Nc1cc(C)c(N=S(=O)(CCC(C)C)c2ccccc2)cc1C (stereo not drawn) [Compound 55] | > 70% | 
CCN(C)C=Nc1cc(Br)c(N=S(C)(=O)c2ccc(Br)cc2)nc1C (stereo not drawn) [Compound 56] | > 70% | 
CCN(C)C=Nc1cc(Br)c(N=S(=O)(CCC(C)C)c2ccccc2)nc1C (stereo not drawn) [Compound 57] | > 70% | 
CCN(C)C=Nc1cc(C)c(S(=O)(CC)=NC(=O)c2ccccc2)cc1Cl (stereo not drawn) [Compound 58] | > 70% | 
CCN(C)C=Nc1cc(C)c(S(=O)(CC)=NC(=O)c2nn(C)cc2C(F)F)cc1Cl (stereo not drawn) [Compound 59] | > 70% | 
CCN(C)C=Nc1cc(C)c(S(=O)(CC)=Nc2cccc(C(F)(F)F)c2)cc1Cl (stereo not drawn) [Compound 60] | > 70% | pest or weed control at 500 ppm [5]: > 70%
CCN(C)C=Nc1cc(C)c(S(=O)(CC)=Nc2cccc(OC(F)(F)F)c2)cc1Cl (stereo not drawn) [Compound 61] |  | pest or weed control at 500 ppm [5]: > 70%; inhibition of growth at 300 ppm [1]: > 70%; inhibition of growth at 300 ppm [3]: > 70%
CCN(C)C=Nc1cc(C)c(S(=O)(CC)=Nc2cc(F)c(F)c(F)c2)cc1Cl (stereo not drawn) [Compound 62] | > 70% | inhibition of growth at 300 ppm [1]: > 70%
CCN(C)C=Nc1cc(C)c(S(=O)(CC)=Nc2ccccc2)cc1Cl (stereo not drawn) [Compound 64] |  | inhibition of growth at 300 ppm [1]: > 70%
